Measured values published in the NIST ThermoML archive (doi:10.1016/j.jct.2009.08.012).
Where “and” joins values, the source holds several entries; their conditions need not be identical. Equal values may be shown once. Numbers after ± are expanded uncertainties.

Assay: activity coefficient (dimensionless); of the first substance listed, at infinite dilution; xn = mol fraction of the nth substance listed
Conditions: Liquid, Chromatography, x1 = 0

SMILES | activity coefficient (303.15 K) | activity coefficient (313.15 K) | activity coefficient (323.15 K)
C=CCCCCCCCC [1-decene] + CCCCCCCC[N+](C)(CCCCCCCC)CCCCCCCC.O=S(=O)([N-]S(=O)(=O)C(F)(F)F)C(F)(F)F | 2.26 and 2.22 | 2.13 and 2.11 | 2.07 and 2.05
C#CCCCCCCCC [1-decyne] + CCCCCCCC[N+](C)(CCCCCCCC)CCCCCCCC.O=S(=O)([N-]S(=O)(=O)C(F)(F)F)C(F)(F)F | 1.3 ± 0.04 | 1.33 and 1.31 | 1.32 and 1.34
C=CCCCCC [1-heptene] + CCCCCCCC[N+](C)(CCCCCCCC)CCCCCCCC.O=S(=O)([N-]S(=O)(=O)C(F)(F)F)C(F)(F)F | 1.46 and 1.44 | 1.45 and 1.43 | 1.44 and 1.42
C#CCCCCC [1-heptyne] + CCCCCCCC[N+](C)(CCCCCCCC)CCCCCCCC.O=S(=O)([N-]S(=O)(=O)C(F)(F)F)C(F)(F)F | 0.89 ± 0.1 | 0.89 and 0.91 | 0.9 and 0.92
C#CCCCC [1-hexyne] + CCCCCCCC[N+](C)(CCCCCCCC)CCCCCCCC.O=S(=O)([N-]S(=O)(=O)C(F)(F)F)C(F)(F)F | 0.59 ± 0.03 | 0.59 ± 0.03 | 0.6 and 0.62
C=CCCCCCCC [1-nonene] + CCCCCCCC[N+](C)(CCCCCCCC)CCCCCCCC.O=S(=O)([N-]S(=O)(=O)C(F)(F)F)C(F)(F)F | 1.99 ± 0.09 | 1.87 and 1.91 | 1.81 and 1.85
C#CCCCCCCC [1-nonyne] + CCCCCCCC[N+](C)(CCCCCCCC)CCCCCCCC.O=S(=O)([N-]S(=O)(=O)C(F)(F)F)C(F)(F)F | 1.15 ± 0.04 | 1.15 and 1.17 | 1.18 ± 0.04
C#CCCCCCC [1-octyne] + CCCCCCCC[N+](C)(CCCCCCCC)CCCCCCCC.O=S(=O)([N-]S(=O)(=O)C(F)(F)F)C(F)(F)F | 1.07 and 1.05 | 1.08 and 1.06 | 1.1 and 1.08
C=CCCC [1-pentene] + CCCCCCCC[N+](C)(CCCCCCCC)CCCCCCCC.O=S(=O)([N-]S(=O)(=O)C(F)(F)F)C(F)(F)F | 0.78 ± 0.03 | 0.76 and 0.74 | 0.76 and 0.78
C#CCCC [1-pentyne] + CCCCCCCC[N+](C)(CCCCCCCC)CCCCCCCC.O=S(=O)([N-]S(=O)(=O)C(F)(F)F)C(F)(F)F | 0.53 and 0.52 | 0.52 and 0.53 | 0.54 and 0.55
CC(C)=O [acetone] + CCCCCCCC[N+](C)(CCCCCCCC)CCCCCCCC.O=S(=O)([N-]S(=O)(=O)C(F)(F)F)C(F)(F)F | 0.35 ± 0.04 | 0.4 and 0.38 | 0.42 and 0.44
c1ccccc1 [benzene] + CCCCCCCC[N+](C)(CCCCCCCC)CCCCCCCC.O=S(=O)([N-]S(=O)(=O)C(F)(F)F)C(F)(F)F | 0.32 and 0.31 | 0.31 ± 0.04 | 0.31 and 0.32
CCC(C)=O [butanone] + CCCCCCCC[N+](C)(CCCCCCCC)CCCCCCCC.O=S(=O)([N-]S(=O)(=O)C(F)(F)F)C(F)(F)F | 0.32 and 0.34 | 0.31 and 0.33 | 0.29 and 0.31
C1CCCCCC1 [cycloheptane] + CCCCCCCC[N+](C)(CCCCCCCC)CCCCCCCC.O=S(=O)([N-]S(=O)(=O)C(F)(F)F)C(F)(F)F | 0.95 and 0.94 | 0.9 and 0.91 | 0.89 and 0.88
C1CCCCC1 [cyclohexane] + CCCCCCCC[N+](C)(CCCCCCCC)CCCCCCCC.O=S(=O)([N-]S(=O)(=O)C(F)(F)F)C(F)(F)F | 0.84 ± 0.03 | 0.8 and 0.81 | 0.8 and 0.79
C1CCCCCCCC1 [cyclononane] + CCCCCCCC[N+](C)(CCCCCCCC)CCCCCCCC.O=S(=O)([N-]S(=O)(=O)C(F)(F)F)C(F)(F)F | 1.76 and 1.74 | 1.68 ± 0.07 | 1.63 and 1.61
C1CCCCCCC1 [cyclooctane] + CCCCCCCC[N+](C)(CCCCCCCC)CCCCCCCC.O=S(=O)([N-]S(=O)(=O)C(F)(F)F)C(F)(F)F | 1.08 and 1.07 | 1.01 and 1.03 | 0.99 and 1.03
C1CCCC1 [cyclopentane] + CCCCCCCC[N+](C)(CCCCCCCC)CCCCCCCC.O=S(=O)([N-]S(=O)(=O)C(F)(F)F)C(F)(F)F | 0.71 ± 0.03 | 0.69 and 0.7 | 0.7 and 0.69
CCCCCCCCCC [decane] + CCCCCCCC[N+](C)(CCCCCCCC)CCCCCCCC.O=S(=O)([N-]S(=O)(=O)C(F)(F)F)C(F)(F)F | 3.2 and 3 | 2.74 and 2.72 | 2.5 ± 0.11
CCO [ethanol] + CCCCCCCC[N+](C)(CCCCCCCC)CCCCCCCC.O=S(=O)([N-]S(=O)(=O)C(F)(F)F)C(F)(F)F | 0.94 and 0.95 | 0.85 and 0.87 | 0.8 and 0.83
CCCCCCC [heptane] + CCCCCCCC[N+](C)(CCCCCCCC)CCCCCCCC.O=S(=O)([N-]S(=O)(=O)C(F)(F)F)C(F)(F)F | 1.3 and 1.31 | 1.26 and 1.28 | 1.25 ± 0.04
C=CCCCC [hex-1-ene] + CCCCCCCC[N+](C)(CCCCCCCC)CCCCCCCC.O=S(=O)([N-]S(=O)(=O)C(F)(F)F)C(F)(F)F | 0.89 and 0.88 | 0.85 ± 0.03 | 0.88 and 0.87
CCCCCC [hexane] + CCCCCCCC[N+](C)(CCCCCCCC)CCCCCCCC.O=S(=O)([N-]S(=O)(=O)C(F)(F)F)C(F)(F)F | 1.13 ± 0.03 | 1.11 and 1.12 | 1.11 and 1.1
CO [methanol] + CCCCCCCC[N+](C)(CCCCCCCC)CCCCCCCC.O=S(=O)([N-]S(=O)(=O)C(F)(F)F)C(F)(F)F | 0.88 and 0.89 | 0.81 and 0.82 | 0.79 and 0.81
CCCCCCCCC [nonane] + CCCCCCCC[N+](C)(CCCCCCCC)CCCCCCCC.O=S(=O)([N-]S(=O)(=O)C(F)(F)F)C(F)(F)F | 2.57 and 2.59 | 2.39 ± 0.11 | 2.21 ± 0.1
C=CCCCCCC [oct-1-ene] + CCCCCCCC[N+](C)(CCCCCCCC)CCCCCCCC.O=S(=O)([N-]S(=O)(=O)C(F)(F)F)C(F)(F)F | 1.69 ± 0.07 | 1.65 and 1.67 | 1.64 and 1.66
CCCCCCCC [octane] + CCCCCCCC[N+](C)(CCCCCCCC)CCCCCCCC.O=S(=O)([N-]S(=O)(=O)C(F)(F)F)C(F)(F)F | 1.52 and 1.54 | 1.46 and 1.49 | 1.44 and 1.43
CCCCC [pentane] + CCCCCCCC[N+](C)(CCCCCCCC)CCCCCCCC.O=S(=O)([N-]S(=O)(=O)C(F)(F)F)C(F)(F)F | 1.01 and 1 | 0.99 ± 0.11 | 1 and 0.98
CCCO [propan-1-ol] + CCCCCCCC[N+](C)(CCCCCCCC)CCCCCCCC.O=S(=O)([N-]S(=O)(=O)C(F)(F)F)C(F)(F)F | 1.37 and 1.35 | 1.24 and 1.22 | 1.13 and 1.15
Cc1ccccc1 [toluene] + CCCCCCCC[N+](C)(CCCCCCCC)CCCCCCCC.O=S(=O)([N-]S(=O)(=O)C(F)(F)F)C(F)(F)F | 0.51 ± 0.03 | 0.52 ± 0.03 | 0.55 and 0.53
